# US20100099561A1, “HETEROBICYCLIC ALKYLTHIO-BRIDGED ISOXAZOLINES” (E.I. DU PONT DE NEMOURS AND COMPANY, priority 2008, published 2010)
# Columns and labels:
# Format in all cases: in vivo
# [1] = test system: velvetleaf (Abutilon theophrasti); experiment: Test A preemergence, velvetleaf; details: 0 to 100 scale (0 no effect, 100 complete control)
# Outline: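 Species planted together in a loam soil and sand blend received compound either as a preemergence soil spray or as a postemergence treatment when 2–10 cm tall with one to two leaves. About ten days later, injury was visually rated relative to untreated plants on a 0–100 scale.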
# [2] = test system: pigweed (Amaranthus retroflexus); experiment: Test B preemergence, pigweed; details: scale 0 to 100
# Excerpt: (§1) Seeds of plant species selected from blackgrass (Alopecurus myosuroides), downy bromegrass (Bromus tectorum), green foxtail (Setaria viridis), Italian ryegrass (Lolium multiflorum), wheat (Triticum aestivum), wild oat (Avena fatua), catchweed bedstraw (Galium aparine), bermudagrass (Cynodon dactylon), Surinam grass (Brachiaria decumbens), cocklebur (Xanthium strumarium), corn (Zea mays), large crabgrass (Digitaria sanguinalis), woolly cupgrass (Eriochloa villosa), giant foxtail (Setaria faberii), goosegrass (Eleusine indica), johnsongrass (Sorghum halepense), kochia (Kochia scoparia), lambsquarters (Chenopodium album), morningglory (Ipomoea coccinea), nightshade (eastern black nightshade, Solanum ptycanthum), yellow nutsedge (Cyperus esculentus), pigweed (Amaranthus retroflexus), ragweed (common ragweed, Ambrosia elatior), soybean (Glycine max), sunflower (common oilseed sunflower, Helianthus annuus), Russian thistle (Salsola kali), and velvetleaf (Abutilon theophrasti) were planted into a blend of loam soil and sand and treated preemergence with test compounds formulated in a non-phytotoxic solvent mixture which included a surfactant. Treated plants and controls were maintained in a greenhouse for 13 to 15 days, after which time all species were compared to controls and visually evaluated. Plant response ratings, summarized in Table B, are based on a scale of 0 to 100 where 0 is no effect and 100 is complete control. A dash (-) response means no test result.
# [3] = test system: johnsongrass (Sorghum halepense); experiment: Test B preemergence, johnsongrass; details: scale 0 to 100
# Excerpt: as §1
# [4] = test system: deadnettle (henbit deadnettle, Lamium amplexicaule); experiment: Test C preemergence, deadnettle; details: 21 days, scale 0 to 100
# Excerpt: (§2) Seeds of plant species selected from annual bluegrass (Poa annua), blackgrass (Alopecurus myosuroides), canarygrass (Phalaris minor), gallium, (catchweed bedstraw, Galium aparine), chickweed (Stellaria media), downy bromegrass (Bromus tectorum), field poppy (Papaver rhoeas), field violet (Viola arvensis), green foxtail (Setaria viridis), deadnettle (henbit deadnettle, Lamium amplexicaule), Italian ryegrass (Lolium multiflorum), kochia (Kochia scoparia), lambsquarters (Chenopodium album), oilseed rape (Brassica napus), pigweed (Amaranthus retroflexus), Russian thistle (Salsola kali), spring barley (Hordeum vulgare), spring wheat (Triticum aestivum), wild buckwheat (Polygonum convolvulus), wild mustard (Sinapis arvensis), wild oat (Avena fatua), wild radish (Raphanus raphanistrum), windgrass (Apera spica-venti), winter barley (Hordeum vulgare), and winter wheat (Triticum aestivum) were planted and treated preemergence with test chemicals formulated in a non-phytotoxic solvent mixture which included a surfactant.
# (§3) Treated plants and controls were maintained in a controlled growth environment for 21 days after which time all species were compared to controls and visually evaluated. Plant response ratings, summarized in Table C, are based on a scale of 0 to 100 where 0 is no effect and 100 is complete control. A dash (-) response means no test result.
# [5] = test system: downy bromegrass (Bromus tectorum); experiment: Test B preemergence, downy bromegrass; details: scale 0 to 100
# Excerpt: as §1
# [6] = test system: Italian ryegrass (Lolium multiflorum); experiment: Test C preemergence, Italian ryegrass; details: 21 days, scale 0 to 100
# Excerpt: as §2, §3
# [7] = test system: wild mustard (Sinapis arvensis); experiment: Test C preemergence, wild mustard; details: 21 days, scale 0 to 100
# Excerpt: as §2, §3
# [8] = test system: Surinam grass (Brachiaria decumbens); experiment: Test B preemergence, Surinam grass; details: Preemergence, scale 0 to 100
# Excerpt: as §1
# [9] = test system: field poppy (Papaver rhoeas); experiment: Test C preemergence, field poppy; details: 21 days, scale 0 to 100
# Excerpt: as §2, §3
# kochia (Kochia scoparia) = experiment: Test C preemergence, kochia; details: 21 days, scale 0 to 100
# Excerpt: as §2, §3
# [10] = test system: cocklebur (Xanthium strumarium); experiment: Test B preemergence, cocklebur; details: scale 0 to 100
# Excerpt: as §1
# [11] = test system: Russian thistle (Salsola kali); experiment: Test B preemergence, Russian thistle; details: scale 0 to 100
# Excerpt: as §1
# [12] = test system: field violet (Viola arvensis); experiment: Test C preemergence, field violet; details: 21 days, scale 0 to 100
# Excerpt: as §2, §3
# [13] = test system: wild buckwheat (Polygonum convolvulus); experiment: Test C preemergence, wild buckwheat; details: 21 days, scale 0 to 100
# Excerpt: as §2, §3
compound,measurement,setting,value
"CC1(C)CC(S(=O)(=O)Cc2c(C(F)(F)F)nc3n(c2=O)CCCC3)=NO1 [Compound 8, 3-[[(4,5-dihydro-5,5-dimethyl-3-isoxazolyl)sulfonyl]methyl]-6,7,8,9-tetrahydro-2-(trifluoromethyl)-4H-pyrido[1,2-α]pyrimidin-4-one]","Plant response rating, Velvetleaf",[1]; 125 g ai/ha,20
same,"Plant response rating, Velvetleaf",[1]; 500 g ai/ha,90
same,"Plant response rating, Pigweed",[2]; 16 g ai/ha,0
same,"Plant response rating, Pigweed",[2]; 31 g ai/ha,20
same,"Plant response rating, Pigweed",[2]; 62 g ai/ha,95
same,"Plant response rating, Pigweed",[2]; 125 g ai/ha,100
same,"Plant response rating, Johnsongrass",[3]; 16 g ai/ha,75
same,"Plant response rating, Johnsongrass",[3]; 31 g ai/ha,90
same,"Plant response rating, Johnsongrass",[3]; 62 g ai/ha,100
same,"Plant response rating, Johnsongrass",[3]; 125 g ai/ha,100
same,"Plant response rating, Deadnettle",[4]; 16 g ai/ha,0
same,"Plant response rating, Deadnettle",[4]; 31 g ai/ha,0
same,"Plant response rating, Deadnettle",[4]; 62 g ai/ha,0
same,"Plant response rating, Deadnettle",[4]; 125 g ai/ha,0
same,"Plant response rating, Bromegrass, Downy",[5]; 16 g ai/ha,0
same,"Plant response rating, Bromegrass, Downy",[5]; 31 g ai/ha,0
same,"Plant response rating, Bromegrass, Downy",[5]; 62 g ai/ha,20
same,"Plant response rating, Bromegrass, Downy",[5]; 125 g ai/ha,40
same,"Plant response rating, Ryegrass, Italian",[6]; 16 g ai/ha,0
same,"Plant response rating, Ryegrass, Italian",[6]; 31 g ai/ha,0
same,"Plant response rating, Ryegrass, Italian",[6]; 62 g ai/ha,0
same,"Plant response rating, Ryegrass, Italian",[6]; 125 g ai/ha,0
same,"Plant response rating, Mustard, Wild",[7]; 16 g ai/ha,0
same,"Plant response rating, Mustard, Wild",[7]; 31 g ai/ha,0
same,"Plant response rating, Mustard, Wild",[7]; 62 g ai/ha,30
same,"Plant response rating, Mustard, Wild",[7]; 125 g ai/ha,100
same,"Plant response rating, Surinam Grass",[8]; 16 g ai/ha,65
same,"Plant response rating, Surinam Grass",[8]; 31 g ai/ha,95
same,"Plant response rating, Surinam Grass",[8]; 62 g ai/ha,100
same,"Plant response rating, Surinam Grass",[8]; 125 g ai/ha,100
same,"Plant response rating, Field Poppy",[9]; 16 g ai/ha,0
same,"Plant response rating, Field Poppy",[9]; 31 g ai/ha,0
same,"Plant response rating, Field Poppy",[9]; 62 g ai/ha,50
same,"Plant response rating, Field Poppy",[9]; 125 g ai/ha,75
same,"Plant response rating, Kochia",kochia (Kochia scoparia); 16 g ai/ha,0
same,"Plant response rating, Kochia",kochia (Kochia scoparia); 31 g ai/ha,0
same,"Plant response rating, Kochia",kochia (Kochia scoparia); 62 g ai/ha,0
same,"Plant response rating, Kochia",kochia (Kochia scoparia); 125 g ai/ha,0
same,"Plant response rating, Cocklebur",[10]; 16 g ai/ha,0
same,"Plant response rating, Cocklebur",[10]; 31 g ai/ha,0
same,"Plant response rating, Cocklebur",[10]; 62 g ai/ha,0
same,"Plant response rating, Cocklebur",[10]; 125 g ai/ha,0
same,"Plant response rating, Russian Thistle",[11]; 16 g ai/ha,0
same,"Plant response rating, Russian Thistle",[11]; 31 g ai/ha,0
same,"Plant response rating, Russian Thistle",[11]; 62 g ai/ha,0
same,"Plant response rating, Russian Thistle",[11]; 125 g ai/ha,0
same,"Plant response rating, Field Violet",[12]; 16 g ai/ha,0
same,"Plant response rating, Field Violet",[12]; 31 g ai/ha,0
same,"Plant response rating, Field Violet",[12]; 62 g ai/ha,0
same,"Plant response rating, Field Violet",[12]; 125 g ai/ha,90
same,"Plant response rating, Buckwheat, Wild",[13]; 16 g ai/ha,0
same,"Plant response rating, Buckwheat, Wild",[13]; 31 g ai/ha,0
same,"Plant response rating, Buckwheat, Wild",[13]; 62 g ai/ha,0
CC1(C)CC(S(=O)(=O)Cc2c(C(F)(F)F)nc3n(c2=O)CCS3)=NO1 [Compound 6],"Plant response rating, Velvetleaf",[1]; 125 g ai/ha,0
same,"Plant response rating, Velvetleaf",[1]; 500 g ai/ha,80
same,"Plant response rating, Pigweed",[2]; 16 g ai/ha,0
same,"Plant response rating, Pigweed",[2]; 31 g ai/ha,50
same,"Plant response rating, Pigweed",[2]; 62 g ai/ha,100
same,"Plant response rating, Pigweed",[2]; 125 g ai/ha,100
same,"Plant response rating, Johnsongrass",[3]; 16 g ai/ha,45
same,"Plant response rating, Johnsongrass",[3]; 31 g ai/ha,70
same,"Plant response rating, Johnsongrass",[3]; 62 g ai/ha,98
same,"Plant response rating, Johnsongrass",[3]; 125 g ai/ha,100
same,"Plant response rating, Deadnettle",[4]; 31 g ai/ha,0
same,"Plant response rating, Deadnettle",[4]; 62 g ai/ha,0
same,"Plant response rating, Deadnettle",[4]; 125 g ai/ha,0
same,"Plant response rating, Deadnettle",[4]; 250 g ai/ha,0
same,"Plant response rating, Bromegrass, Downy",[5]; 16 g ai/ha,0
same,"Plant response rating, Bromegrass, Downy",[5]; 31 g ai/ha,20
same,"Plant response rating, Bromegrass, Downy",[5]; 62 g ai/ha,20
same,"Plant response rating, Bromegrass, Downy",[5]; 125 g ai/ha,50
same,"Plant response rating, Ryegrass, Italian",[6]; 31 g ai/ha,0
same,"Plant response rating, Ryegrass, Italian",[6]; 62 g ai/ha,15
same,"Plant response rating, Ryegrass, Italian",[6]; 125 g ai/ha,15
same,"Plant response rating, Ryegrass, Italian",[6]; 250 g ai/ha,95
same,"Plant response rating, Mustard, Wild",[7]; 31 g ai/ha,0
same,"Plant response rating, Mustard, Wild",[7]; 62 g ai/ha,0
same,"Plant response rating, Mustard, Wild",[7]; 125 g ai/ha,0
same,"Plant response rating, Mustard, Wild",[7]; 250 g ai/ha,0
same,"Plant response rating, Surinam Grass",[8]; 16 g ai/ha,20
same,"Plant response rating, Surinam Grass",[8]; 31 g ai/ha,60
same,"Plant response rating, Surinam Grass",[8]; 62 g ai/ha,98
same,"Plant response rating, Surinam Grass",[8]; 125 g ai/ha,100
same,"Plant response rating, Field Poppy",[9]; 31 g ai/ha,40
same,"Plant response rating, Field Poppy",[9]; 62 g ai/ha,50
same,"Plant response rating, Field Poppy",[9]; 125 g ai/ha,90
same,"Plant response rating, Field Poppy",[9]; 250 g ai/ha,100
same,"Plant response rating, Kochia",kochia (Kochia scoparia); 31 g ai/ha,0
same,"Plant response rating, Kochia",kochia (Kochia scoparia); 62 g ai/ha,0
same,"Plant response rating, Kochia",kochia (Kochia scoparia); 125 g ai/ha,0
same,"Plant response rating, Kochia",kochia (Kochia scoparia); 250 g ai/ha,0
same,"Plant response rating, Cocklebur",[10]; 16 g ai/ha,0
same,"Plant response rating, Cocklebur",[10]; 31 g ai/ha,0
same,"Plant response rating, Cocklebur",[10]; 62 g ai/ha,0
same,"Plant response rating, Cocklebur",[10]; 125 g ai/ha,0
same,"Plant response rating, Field Violet",[12]; 31 g ai/ha,0
same,"Plant response rating, Field Violet",[12]; 62 g ai/ha,0
same,"Plant response rating, Field Violet",[12]; 125 g ai/ha,0
same,"Plant response rating, Field Violet",[12]; 250 g ai/ha,0
same,"Plant response rating, Buckwheat, Wild",[13]; 31 g ai/ha,0
same,"Plant response rating, Buckwheat, Wild",[13]; 62 g ai/ha,0
same,"Plant response rating, Buckwheat, Wild",[13]; 125 g ai/ha,0
same,"Plant response rating, Buckwheat, Wild",[13]; 250 g ai/ha,0
